Patent publication US5968923A, “(Azetidin-1-ylalkyl) lactams as tachykinin antagonists” (Pfizer Inc., priority 1994, dated 1999)

Tests used:
human NK2 receptor = target: T1, human NK2 receptor (Homo sapiens, UniProt P21452); assay: Competition with [^125 I] NKA for binding to membranes from Chinese hamster ovary cells expressing the cloned human NK2 receptor (Method A); conditions: Chinese hamster ovary cell membranes; for IC50: read-out: METHOD A (pIC50) (converted)
T1 construct: expressed in transfected cells; host or cells: Chinese hamster ovary (CHO) cells, membranes
T1 sequence (P21452 1-398): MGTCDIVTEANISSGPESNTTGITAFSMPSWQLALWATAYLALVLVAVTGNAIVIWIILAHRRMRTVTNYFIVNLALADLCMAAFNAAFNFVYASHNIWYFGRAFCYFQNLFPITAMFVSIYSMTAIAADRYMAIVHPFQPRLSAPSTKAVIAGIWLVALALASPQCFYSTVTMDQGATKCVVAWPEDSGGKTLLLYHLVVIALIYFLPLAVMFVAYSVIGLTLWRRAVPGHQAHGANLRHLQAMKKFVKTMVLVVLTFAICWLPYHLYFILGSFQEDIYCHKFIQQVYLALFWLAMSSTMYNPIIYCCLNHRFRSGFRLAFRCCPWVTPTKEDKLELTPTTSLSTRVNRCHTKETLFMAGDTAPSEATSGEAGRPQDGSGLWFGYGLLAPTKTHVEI
Method: The affinity of the compounds of formula (I) and their salts for the human NK2 receptor can be tested in vitro by testing their ability to compete with [^3 H] or [^125 I]NKA (neurokinin A) for binding to membranes prepared from Chinese hamster ovary cells expressing the cloned human NK2 receptor. In this method, washed Chinese hamster ovary cell membranes are prepared as described for the previous method where IM9 cells are used instead. The membranes are incubated (90 min, 25° C.) with [^3 H] NKA and with a range of concentrations of the test compound. Non-specific binding was determined in the presence of 10 μM NKA.
(§1) A representative selection of the compounds of the Examples were tested in vitro for their affinity to the human NK2 receptor by testing their ability to compete with [^125 I] NKA for binding to membranes prepared from Chinese hamster ovary cells expressing the cloned human NK2 receptor (Method A) and for their ability to antagonise the contractile effects of [βAla^8 ] NKA(4-10) in the rabbit pulmonary artery (Method B) by the methods described on pages 40 and 41 of the specification.

NK2 receptor = target: T2, NK2 receptor (Oryctolagus cuniculus, UniProt P79218); assay: Antagonism of the contractile effects of [βAla^8 ] NKA(4-10) in the rabbit pulmonary artery (Method B); type: cell-based; conditions: agonist [βAla^8 ] NKA(4-10); for Kb: read-out: METHOD B (pA2) (converted)
T2 construct: antagonise the contractile effects of [βAla^8 ]; NKA(4-10) in the rabbit pulmonary artery; from tissue; host or cells: rabbit pulmonary artery
T2 sequence (P79218 1-384): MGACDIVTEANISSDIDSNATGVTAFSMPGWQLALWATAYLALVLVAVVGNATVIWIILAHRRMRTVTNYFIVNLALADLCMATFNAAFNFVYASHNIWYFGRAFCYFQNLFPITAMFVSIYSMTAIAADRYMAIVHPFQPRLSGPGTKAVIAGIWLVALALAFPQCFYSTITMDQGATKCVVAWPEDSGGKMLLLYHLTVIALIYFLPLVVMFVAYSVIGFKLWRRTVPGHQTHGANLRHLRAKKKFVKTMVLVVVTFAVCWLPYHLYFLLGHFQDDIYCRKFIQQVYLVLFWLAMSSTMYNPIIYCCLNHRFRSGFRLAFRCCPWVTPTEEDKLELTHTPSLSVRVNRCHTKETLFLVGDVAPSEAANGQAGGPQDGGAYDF
Method: The NK2 receptor antagonist activity of the compounds of the formula (I) can be tested, in vitro, by testing their ability to antagonise the contractile effects of the selective NK2 receptor agonist [βAla^8 ]NKA(4-10) in the rabbit pulmonary artery, using the method of Patacchini and Maggi, Eur. J. Pharmacol., 236, 31-37 (1993).
as §1

SMILES	IC50 (human NK2 receptor) [nM]	Kb (NK2 receptor) [nM]	METHOD A (pIC50) (human NK2 receptor)	METHOD B (pA2) (NK2 receptor)
CS(=O)(=O)N1CCN(C2CN(CCC3(c4ccc(Cl)cc4)CCC(=O)N(CC4CCCCC4)C3)C2)CC1 (stereo not drawn) [Example 89]	6.31	2.51		
CC1CCCCC1CN1CC(CCN2CC(N3CCOCC3)C2)(c2ccc(Cl)c(Cl)c2)CCC1=O (stereo not drawn) [Example 73]	0.316	1.26		
O=C1CCC(CCN2CC(N3CC[S+]([O-])CC3)C2)(c2ccc(F)c(F)c2)CN1Cc1ccccc1 (stereo not drawn) [Example 14]	63.1	12.6		
O=C1CCC(CCN2CC(N3[C@@H]4CC[C@H]3C[C@@H](O)C4)C2)(c2ccc(Cl)c(Cl)c2)CN1Cc1ccccc1 (stereo partly drawn) [Example 104, 1-Benzyl-5-(3,4-dichlorophenyl)-5-(2-[3-(endo-3-hydroxy-8-azabicyolo[3,2,1]oct-8-yl)azetidin-1-yl]ethyl)-2-piperidone]			8.8	9.2
CC(c1ccccc1)N1CC(CCN2CC(N3CCOCC3)C2)(c2ccc(Cl)c(Cl)c2)CCC1=O (stereo not drawn) [Example 75 (enantiomeric pair A)]	5.01	0.794		
O=C1CCC(CCN2CC(C(=O)N3CCCCC3)C2)(c2ccc(Cl)c(Cl)c2)CN1Cc1ccccc1 (stereo not drawn) [Example 31]	1	5.01		
